The text below walks through data of US8697081B2, “Method of modulating neovascularization” (The Regents of the University of Michigan, priority 2008, dated 2014).

For assay [1], the system named is human endothelial cells. As to the kind of experiment: Cell morphology, migration and cell number of endothelial cells in 3-D fibrin gel. It counts as cell-based. The following applies: 2 days, 50 μM blebbistatin. The procedure: (§1) Endothelial cells were isolated from human umbilical cord veins by collagenase digestion and cultured in Medium 199 (Gibco) containing 20% human serum, 50 μg/ml endothelial cell growth supplement (BD Biosciences), 100 U/ml penicillin, and 100 μg/ml streptomycin (Hiraoka et al. 1998. Cell, 95(3): 365-377). […]
The effect of Fn matrix assembly, or lack thereof, on endothelial cell function during neovascularization was assessed. […]
(Chernousov et al. 1991. J. Biol. Chem., 266(17): 10851-10858; Tomasini-Johansson et al. 2001. J. Biol. Chem., 276(26): 23430-23439; Mao and Schwarzbauer. 2005. Matrix Biol., 24(6): 389-399; and Tomasini-Johansson et al. 2006. Matrix Biol., 25(5): 282-293). […] Cell number in 3-D cultures was determined by hemacytometry after dissolving gels with 2 mg/ml bacterial collagenase (Worthington) while the number of patent tubules was determined in randomly selected cross-sections. Fn matrix assembly and cell morphology were monitored by confocal laser microscopy. To examine cell migration, endothelial cells were embedded in a 100 μl fibrin gel for 2 hours, then placed within a 500 μl gel for 8 days in the presence of Del29, FUD, control IgG, or L8, after which migration from the inner gel was assessed. […]

For assay [2], the system named is human endothelial cells. Put plainly: Tubulogenesis (patent tubules) in 3-D fibrin gel. It counts as cell-based. The following applies: 50 μM blebbistatin. The procedure: as §1
(Chernousov et al. 1991. J. Biol. Chem., 266(17): 10851-10858; Tomasini-Johansson et al. 2001. J. Biol. Chem., 276(26): 23430-23439; Mao and Schwarzbauer. 2005. Matrix Biol., 24(6): 389-399; and Tomasini-Johansson et al. 2006. Matrix Biol., 25(5): 282-293). […] Cell number in 3-D cultures was determined by hemacytometry after dissolving gels with 2 mg/ml bacterial collagenase (Worthington) while the number of patent tubules was determined in randomly selected cross-sections. Fn matrix assembly and cell morphology were monitored by confocal laser microscopy. To examine cell migration, endothelial cells were embedded in a 100 μl fibrin gel for 2 hours, then placed within a 500 μl gel for 8 days in the presence of Del29, FUD, control IgG, or L8, after which migration from the inner gel was assessed.

Assay [3] deals with chorioallantoic membrane (CAM) of live chicks. As to the kind of experiment: Chick chorioallantoic membrane (CAM) angiogenesis into 3-D matrices. The format is in vivo. The following applies: 3 days, VEGF and HGF, versus Del29 control. The procedure: The functional role for fibrillogenesis in tissue sites undergoing active angiogenesis in vivo was assessed. To this end, 3-D composite gels of fibrin and type I collagen were placed atop the chorioallantoic membrane (CAM) of live chicks, and angiogenesis was initiated in the presence of FUD or the Del29 peptide control. In particular, 3-D matrices of type I collagen or a type I collagen/fibrin composite matrix were cast in transwell tissue culture inserts (24 well size) perforated with a 25 gauge needle. A 30 μl Matrigel (BD Biosciences) reservoir was placed atop the matrix containing 200 ng VEGF, 100 ng HGF, and either Del29 or FUD. The entire apparatus was placed atop the dropped CAM of 10-11 day old fertile chicken eggs. Following incubation in a humidified incubator at 37° for 3 days, the matrices were harvested. Vascular ingrowth was monitored by light microscopy following H&E staining. In some experiments, FITC-Fn (McKeown-Longo and Mosher. 1985. J. Cell. Biol., 100(2): 364-74) was supplemented in the matrices during the culture period, and Fn fibrillogenesis within the gels was monitored by confocal laser microscopy.

As for `Cc1ccc2c(c1)C(=O)C1(O)CCN(c3ccccc3)C1=N2` (stereo not shown) [blebbistatin], the cell shape change result in assay [1] is listed as “failed to undergo”. Also, the endothelial cell tubulogenesis result in assay [2] is listed as “blocked completely”.
Turning to “FUD: 49-residue functional upstream domain of Streptococcus pyogenes F1 adhesion protein, SEQ ID NO: 10; fibronectin fibril assembly inhibitor (KDQSPLAGESGETEYITEVYGNQQNPVDIDKKLPNETGFSGNMVETEDT; Streptococcus pyogenes; Functional Upstream Domain (FUD) of F1 adhesion protein)”, in assay [3], the “Fn matrix assembly in ECM construct” value was “almost completely inhibited” and the “neovessel formation (vascular ingrowth)” value is listed as “ablated”.
